Assay results from paper PMC10674166, “Sustainable Immobilization of β-Glucosidase onto Silver Ions and AgNPs-Loaded Acrylic Fabric with Enhanced Stability and Reusability” (Polymers, 2023).

Tested on: T1, β-glucosidase from almonds (β-Glu)
T1 construct: gene AH; free enzyme
Test: p-nitrophenol release at […] nm, Lineweaver-Burk
Type: biochemical
Conditions: free enzyme; standard assay 0.1 M sodium acetate pH 6.0, 37 °C (pH and temperature of the kinetic runs not restated); apparent constant

- Km: 2.6 mM
SMILES: O=[N+]([O-])c1ccc(O[C@@H]2O[C@H](CO)[C@@H](O)[C@H](O)[C@H]2O)cc1 [p-nitrophenyl-β-D-glucopyranoside]
